Assay results from ChEMBL document CHEMBL3885881, “DrugMatrix”.

Organism: Rattus norvegicus
Experiment: DrugMatrix - Regimen: Daily Repeat
Assay type: toxicity, organism-based, Sprague-Dawley
Set-up: regimen Daily Repeat, gender Male, age 6-8 weeks
Conditions: in vivo, po, route oral GAVAGE, […]; for ABSOLUTE BASOPHIL / ABSOLUTE EOSINOPHIL / ABSOLUTE LYMPHOCYTE / ABSOLUTE MONOCYTE / ABSOLUTE SEGMENTED NEUTROPHIL / BASOPHIL / EOSINOPHIL / ERYTHROCYTE COUNT / HEMATOCRIT / HEMOGLOBIN / LEUKOCYTE COUNT / LYMPHOCYTE / MEAN CORPUSCULAR HEMOGLOBIN / MEAN CORPUSCULAR HEMOGLOBIN CONCENTRATION / MEAN CORPUSCULAR VOLUME / MONOCYTE / NEUTROPHIL / NUCLEATED RED BLOOD CELLS / PLATELET COUNT: tissue Blood; for ALANINE AMINOTRANSFERASE / ALBUMIN / ALKALINE PHOSPHATASE / ASPARTATE AMINOTRANSFERASE / BLOOD UREA NITROGEN / CARBON DIOXIDE / CHLORIDE / CHOLESTEROL / CREATINE PHOSPHOKINASE / CREATININE / GLUCOSE / LACTATE DEHYDROGENASE / LIPASE / PHOSPHORUS / POTASSIUM / SODIUM / TOTAL BILIRUBIN / TOTAL PROTEIN / URIC ACID: tissue Plasma
[1] = 0 mg/kg, 72 h, dose level Control, time 3 day
[2] = 0 mg/kg, 120 h, dose level Control, time 5 day
[3] = 100 mg/kg, 72 h, dose level Low, time 3 day

## CC(=O)Nc1ccc(O)cc1 [ACETAMINOPHEN]
[1]
  ABSOLUTE BASOPHIL: 0 CELLS/uL
  ABSOLUTE EOSINOPHIL: 0 CELLS/uL
  ABSOLUTE LYMPHOCYTE: 6275.67 CELLS/uL
  ABSOLUTE MONOCYTE: 40.67 CELLS/uL
  ABSOLUTE SEGMENTED NEUTROPHIL: 633.67 CELLS/uL
  BASOPHIL: 0%
  EOSINOPHIL: 0%
  ERYTHROCYTE COUNT: 5.2 x10E6/uL
  HEMATOCRIT: 32.78%
  HEMOGLOBIN: 12.98 G/DL
  LEUKOCYTE COUNT: 6.95 x10E3/uL
  LYMPHOCYTE: 90.17%
  MEAN CORPUSCULAR HEMOGLOBIN: 24.97 pg
  MEAN CORPUSCULAR HEMOGLOBIN CONCENTRATION: 39.62 G/DL
  MEAN CORPUSCULAR VOLUME: 63.03 fL
  MONOCYTE: 0.67%
  NEUTROPHIL: 9.17%
  NUCLEATED RED BLOOD CELLS: 0 /100WBC
  PLATELET COUNT: 1082.83 x10E3/uL
  ALANINE AMINOTRANSFERASE: 69.67 u/L
  ALBUMIN: 4.15 G/DL
  ALKALINE PHOSPHATASE: 430.5 u/L
  ASPARTATE AMINOTRANSFERASE: 90.83 u/L
  BLOOD UREA NITROGEN: 13 mg/dL
  CARBON DIOXIDE: 33 mmol/L
  CHLORIDE: 99.17 MEQ/L
  CHOLESTEROL: 70.5 mg/dL
  CREATINE PHOSPHOKINASE: 253.33 u/L
  CREATININE: 0.13 mg/dL
  GLUCOSE: 157.17 mg/dL
  LACTATE DEHYDROGENASE: 85 u/L
  LIPASE: 10 u/L
  PHOSPHORUS: 10.2 mg/dL
  POTASSIUM: 5.78 MEQ/L
  SODIUM: 144.12 MEQ/L
  TOTAL BILIRUBIN: 0.2 mg/dL
  TOTAL PROTEIN: 5.8 G/DL
  URIC ACID: 0.8 mg/dL
[2]
  ABSOLUTE BASOPHIL: 0 CELLS/uL
  ABSOLUTE EOSINOPHIL: 0 CELLS/uL
  ABSOLUTE LYMPHOCYTE: 10431 CELLS/uL
  ABSOLUTE MONOCYTE: 90.5 CELLS/uL
  ABSOLUTE SEGMENTED NEUTROPHIL: 1111.83 CELLS/uL
  BASOPHIL: 0%
  EOSINOPHIL: 0%
  ERYTHROCYTE COUNT: 5.51 x10E6/uL
  HEMATOCRIT: 34.67%
  HEMOGLOBIN: 13.5 G/DL
  LEUKOCYTE COUNT: 11.63 x10E3/uL
  LYMPHOCYTE: 89.67%
  MEAN CORPUSCULAR HEMOGLOBIN: 24.5 pg
  MEAN CORPUSCULAR HEMOGLOBIN CONCENTRATION: 38.95 G/DL
  MEAN CORPUSCULAR VOLUME: 62.87 fL
  MONOCYTE: 0.67%
  NEUTROPHIL: 9.67%
  NUCLEATED RED BLOOD CELLS: 0 /100WBC
  PLATELET COUNT: 1052.67 x10E3/uL
  ALANINE AMINOTRANSFERASE: 54.67 u/L
  ALBUMIN: 4.15 G/DL
  ALKALINE PHOSPHATASE: 359.83 u/L
  ASPARTATE AMINOTRANSFERASE: 83 u/L
  BLOOD UREA NITROGEN: 13.5 mg/dL
  CARBON DIOXIDE: 27.17 mmol/L
  CHLORIDE: 98.5 MEQ/L
  CHOLESTEROL: 66.83 mg/dL
  CREATINE PHOSPHOKINASE: 256.17 u/L
  CREATININE: 0.19 mg/dL
  GLUCOSE: 171.33 mg/dL
  LACTATE DEHYDROGENASE: 91.5 u/L
  LIPASE: 10.5 u/L
  PHOSPHORUS: 8.72 mg/dL
  POTASSIUM: 5.34 MEQ/L
  SODIUM: 142.53 MEQ/L
  TOTAL BILIRUBIN: 0.2 mg/dL
  TOTAL PROTEIN: 6.05 G/DL
  URIC ACID: 0.6 mg/dL
[3]
  ABSOLUTE BASOPHIL: 0 CELLS/uL
  ABSOLUTE EOSINOPHIL: 0 CELLS/uL
  ABSOLUTE LYMPHOCYTE: 7022 CELLS/uL
  ABSOLUTE MONOCYTE: 162.33 CELLS/uL
  ABSOLUTE SEGMENTED NEUTROPHIL: 715.67 CELLS/uL
  BASOPHIL: 0%
  EOSINOPHIL: 0%
  ERYTHROCYTE COUNT: 5.13 x10E6/uL
  HEMATOCRIT: 32.6%
  HEMOGLOBIN: 12.9 G/DL
  LEUKOCYTE COUNT: 7.9 x10E3/uL
  LYMPHOCYTE: 88.67%
  MEAN CORPUSCULAR HEMOGLOBIN: 25.13 pg
  MEAN CORPUSCULAR HEMOGLOBIN CONCENTRATION: 39.57 G/DL
  MEAN CORPUSCULAR VOLUME: 63.53 fL
  MONOCYTE: 2%
  NEUTROPHIL: 9.33%
  NUCLEATED RED BLOOD CELLS: 0 /100WBC
  PLATELET COUNT: 1191.67 x10E3/uL
  ALANINE AMINOTRANSFERASE: 62 u/L
  ALBUMIN: 4.1 G/DL
  ALKALINE PHOSPHATASE: 340 u/L
  ASPARTATE AMINOTRANSFERASE: 77.67 u/L
  BLOOD UREA NITROGEN: 15.33 mg/dL
  CARBON DIOXIDE: 33.67 mmol/L
  CHLORIDE: 98.67 MEQ/L
  CHOLESTEROL: 85 mg/dL
  CREATINE PHOSPHOKINASE: 201.67 u/L
  CREATININE: 0.15 mg/dL
  GLUCOSE: 165 mg/dL
  LACTATE DEHYDROGENASE: 82.67 u/L
  LIPASE: 10 u/L
  PHOSPHORUS: 11 mg/dL
  POTASSIUM: 5.65 MEQ/L
  SODIUM: 145.13 MEQ/L
  TOTAL BILIRUBIN: 0.2 mg/dL
  TOTAL PROTEIN: 5.9 G/DL
  URIC ACID: 0.73 mg/dL
